Experimental data reported in publication PMC8502973 (Frontiers in Physiology, 2021).

Columns and labels:
V2R = V2R agonist; no reference given; cited from earlier work
Excerpt: Whereas the overall profile of ASK1476 met the primary aim of our studies including the enhanced stability of the OXTR activator in vivo, the molecule did display a significant activation of the V2R. As mentioned above, the receptor plays the key role in both urine and water homeostasis.

[1] = Excipient (HP-CD) effects on food intake and body weight; format: in vivo; details: 2% HP-CD/saline, 1 mL/kg, 7 days, lean male rats n = 5
Experimental: As the excipient used to place ASK1476 in solution, HP-CD, was used in excess, a preliminary experiment was run to examine whether it produces any anorectic effects independently. Testing consisted of a 7-day normal saline treated phase followed by a 7-day 2% HP-CD/saline solution (dose 1 mL/kg) treated phase in lean male rats (n = 5; at start of HP-CD treatment: mean 410 g, SD 26 g). […] Food intake was continuously recorded using AccuScan DietMax (currently OmniTech Electronics, Inc., Diet System) cages and data were binned into 15-min intervals for analysis. The start of the 24-h food intake period aligned to the lights turning off in the animal room. Body weight was recorded, and treatment injections were administered just prior to the start of the dark cycle.

Substance | side effects in the clinical setting (V2R) | 7-day food intake, difference vs saline ([1]; 95% CU −0.19 to 0.71, p = 0.187) | body weight gain, difference vs saline ([1]; 95% CU −0.99 to 0.95, p = 0.950)
desmopressin | hyponatremia and renal water retention | – | –
Hydroxypropyl-β-cyclodextrin [HP-CD] | – | 0.26 g | -0.02 g
